“And” between values parts separate entries of the source, which are not always exact repeats. Equal values may be shown once.
Key:
Mushroom tyrosinase = Mushroom tyrosinase (Agaricus bisporus, UniProt C7FF04); assay: Enzyme kinetics with tyrosinase (substrate disappearance by HPLC, Lineweaver-Burk); format: biochemical; conditions: result in words
Protocol: (§1) Mushroom tyrosinase (400 units/mg) and plasma MAO (1000 units/gm) were obtained from Sigma Chemical Co. (St. Louis, MO, USA). A reaction mixture consisted of a substrate of 7 to 8 different concentrations (40 to 500 »M for mushroom tyrosinase and 20 to 200 »M for MAO) and of either mushroom tyrosinase (2.5 »g) or MAO (10 »g) in 1.0 mL of 0.05 M sodium phosphate buffer, pH 6.8 and 7.4 respectively. The reactions were carried out at 37°C in a shaking water bath, and stopped by taking 100 »L of the reaction mixture and adding it to 900 »L of 0.4 M HCLO₄. The disappearance of substrate was followed using HPLC (high pressure liquid chromatography) Km and Vmax values were calculated from the Lineweaver-Burk plots.

plasma MAO = biological target: T1, plasma MAO (Bos taurus, UniProt Q29437); assay: Enzyme kinetics with monoamineoxidase (substrate disappearance by HPLC, Lineweaver-Burk); format: biochemical; conditions: result in words
T1 construct: purchased Sigma Chemical Co. (St. Louis, MO, USA)
T1 sequence (Q29437 17-762): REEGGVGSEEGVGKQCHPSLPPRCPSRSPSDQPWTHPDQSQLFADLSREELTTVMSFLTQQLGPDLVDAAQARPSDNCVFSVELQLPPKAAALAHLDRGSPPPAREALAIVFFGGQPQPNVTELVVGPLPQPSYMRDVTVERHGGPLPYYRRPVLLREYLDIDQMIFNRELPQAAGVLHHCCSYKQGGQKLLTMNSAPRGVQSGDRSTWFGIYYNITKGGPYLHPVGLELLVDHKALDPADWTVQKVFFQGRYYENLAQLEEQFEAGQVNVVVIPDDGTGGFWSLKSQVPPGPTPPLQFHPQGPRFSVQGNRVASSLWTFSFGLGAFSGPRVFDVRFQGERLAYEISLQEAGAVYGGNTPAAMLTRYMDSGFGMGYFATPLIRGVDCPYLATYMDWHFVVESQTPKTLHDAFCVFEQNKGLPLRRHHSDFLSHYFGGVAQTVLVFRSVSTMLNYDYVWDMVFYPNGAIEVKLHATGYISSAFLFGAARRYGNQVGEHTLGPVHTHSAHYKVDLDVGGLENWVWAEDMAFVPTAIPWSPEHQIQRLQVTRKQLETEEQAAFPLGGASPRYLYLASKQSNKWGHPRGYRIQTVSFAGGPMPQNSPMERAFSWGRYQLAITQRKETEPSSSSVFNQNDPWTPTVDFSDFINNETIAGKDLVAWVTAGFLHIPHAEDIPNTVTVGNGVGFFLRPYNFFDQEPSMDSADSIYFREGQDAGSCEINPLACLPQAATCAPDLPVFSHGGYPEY
Protocol: as §1

B16F10 melanoma = assay: Melanoma-colony formation in the lungs; format: in vivo, mice; conditions: 300 mg/kg i.p. daily for 14 days from day five; lungs excised day 26
Protocol: Murine B16F10 melanoma cell line with a strong metastatic property to form tumour colonies in the lungs was obtained from Dr. Longenecker, Department of Immunology, University of Alberta. Such cell line is well recognized and readily available as reported in Miura et al, supra. The cells were grown in T-75 flasks in dulbecco's MEM available from Gipco Lab Inc., Grand Island, New York, supplemented with 10% fetal calf serum, also obtained from Gipco, penicillin (100 »/ml) and streptomycin (100 »g/ml). The cells were incubated at 37°C in humidified atmosphere of 5% CO₂ in air. The cells were harvested by applying a thin layer of 0.25% trypsin solution in EDTA, washed and resuspended in cold N saline solution. Viable cells were identified by trypan blue dye exclusion and counted. The cell suspension was diluted to the desired concentration. Three groups of mice were studied using a control 4-S-CAP and N-Ac-4-S-CAP as the active agents in the treatment. On day zero, the mice were inoculated via the lateral tail vein with 5 x 10⁴ cells in 0.2 ml of N saline. The test drugs were dissolved in normal saline, sterilized by membrane filtration, and administered in a dose of 300 mg/Kg (4-S-CAP) or 900 mg/Kg (N-Ac-4-S-CAP); starting on day five, the control solution or drug was injected i.p. daily for 14 days. On day 26, the mice were killed by cervical dislocation, their lungs were removed, and the number of melanoma colonies was counted under a dissecting microscope. The results were expressed as percentage reduction in the number of colonies: [a - b/a] x 100, where a = colonies in control group and b = colonies in experimental group.

melanocytes = assay: Light and electron microscopy of melanocytes in regrowing hair follicles; format: in vivo, mice; conditions: for electron microscopy of hair follicles: melanocytes and melanosomes: i.p. injection for 10 days
Protocol: In six groups of 4 mice (1 control and 1 for each compound) were treated daily with the control or compound injected i.p. The compounds tested were 4-S-CAP, N-Ac-4-S-CAP and α-Me-4-S-CAP. Samples of skin and regrowing hair follicles were excised under brief general anaesthesia on day 10 (late anagen phase), fixed in Karnovsky's solution (2.5% glutaraldehyde and 2.5% paraformaldehyde in 0l1 M cacodylate buffer), and refixed in 1% osmium tetroxide in cadodylate buffer. Tissues were stained en bloc with 1.5% uranyl acetate in o.1 M veronal buffer for 30min, dehydrated in graded ethanol solutions, embedded in epoxy resin, and sectioned with a Potter-Blum ultramicrotome MT II. Sections 1.0 »m thick were stained with methylene blue for light microscopy, thin sections were stained with led citrate for electron microscopy.

B16 melanoma = assay: In vivo growth inhibition of s.c. inoculated B16 melanoma; set-up: species or system C57BL/6J mice; conditions: 200 mg/Kg i.p. daily for nine days, day 12 or 13
Protocol: The in vivo antimelanoma effect of the compounds were evaluated by percent growth inhibition of inoculated tumour (%g.i.). The percent g.i. was computed from the mean tumour volume at day 12 or 13 of the experiments; i.e., 100 x (1- treated group/control group). […] To further examine whether a minimal dose of N-Ac-4-S-CAP, 200 mg/Kg has an antimelanoma effect, three groups of mice were treated with N-Ac-4-S-CAP. […] One of the advantages of N-Ac-4-S-CAP over 4-S-CAP was that it had much higher LD⁵⁰ (as high as 1400 mg/Kg of body weight, and therefore a greater range of safety).

[1] = acute toxicity evaluated from 100 to 1600 mg/Kg; Miura et al; cited from earlier work
follicular melanocytes = assay: Depigmentation of new hair after plucking (PTCA/eumelanin content of hair follicles); format: in vivo, C57BL/6J black mice; conditions: for PTCA Content / Depigmentation: hair harvested day 22
Protocol: Breeding pairs of C57BL/6J black mice were purchased from Jackson Laboratory, Bar Harbor, Maine. Female progeny were used in this testing when approximately 8 weeks old and weighing 17 grams.
Black hairs were plucked manually from the back of the mice to initiate new anagen growth and activate follicular melanocytes with increased tyrosinase activity. Thirty mice were randomized into 6 groups of 5 (1 control and 1 for each compound). Starting on day 1, daily for 14 days the agent was injected i.p. or was infiltrated s.c. in an area where hair follicles had been plucked; the dose was 300 mg/kg body weight.
In the same 30 mice, hair follicles were harvested on day 22 (early telogen phase) and their eumelanin content analyzed. Details of the assay, including chemical degration of melanin and high-performance liquid chromatography (HPLC) were as described in Ito et al, "Quantitative Analysis of Eumelanin and Pheomelanin in Hair and Melanosomes" J. Invest. Dermatol 80:268-272, 1983. Briefly, a 10-mg hair sample is homogenized in water at a concentration of 10 mg/ml; the 200-»l homogenate is transferred to a screw-capped test tube, mixed with 1M H₂SO₄ (800 »L) and oxidized with 3% KMnO₄. The product, pyrrole-2,3,5-tricarboxylic acid (PTCA), is analyzed by HPLC with a UVL detector; samples are measured in duplicate. The eumelanin content is expressed as PTCA (ng/mg) against the PCTA content of BALB/c albino mice as control (≦ 10 ng/mg, the background value with our method, in which 1 ng corresponds roughly to a eumelanin content of 50 ng), and the degree of depigmentation is expressed as a percentage: (PTCA content of control sampleminusPTCA content of experimental sample)/(PCTA content of control sample) x 100 [formula] .

[2] = Acute toxicity / lethal dose and maximum tolerable dose; conditions: mouse, in vivo
Protocol: 3:1-85 1972. In accordance with this Protocol, ten to fifteen mice were used in each test group. They were weighed and randomized at day one after s.c. inoculation of B16 melanoma cells. From day five, the phenolic melanin precursors were administered i.p. daily for nine days. The test compounds were dissolved in normal saline, and sterilized by heating to 100°C for 2 minutes. […] They were administered i.p. with the following doses: 400 mg/Kg - 4-S-CAP; 200 to 300 mg/Kg - 4-S-CAP; and 200 to 1200 mg/Kg - N-Ac-4-S-CAP. A catalytic amount of L-dopa, 25 mg/Kg and antidecarboxylase, carbidopa, 400 mg/Kg, were also administered. Carbidopa was given one hour prior to L-dopa administration. DTIC (NSC 4538) was used as a control drug at a dose of 60 mg/Kg. Acute toxicity of 4-S-CP and 4-S-CAP was evaluated from 100 to 1600 mg/Kg.
The B16 mouse melanoma was maintained by s.c. inoculation of tumour cells into the back of C57BL7J mice (5 to 6 weeks, female). […] Briefly, excised tumours were homogenized in normal saline. The homogenized tumour cells were then passed through a sterile 80 mesh stainless steel screen, washed with normal saline, centrifuged (500 g. for 10 minutes) and resuspended in normal saline. Suspensions of viable melanoma cells at the concentration of 1 x 10⁶ per 0.1 ml were inoculated s.c. into both the right and left inguinal areas of C57BL/6J mice (female, 5 to 6 weeks old, 18 to 20 gm).

[3] = Route s.c., 300 mg/kg daily for 14 days
[4] = Route s.c., 300 mg/kg daily for 14 days, 300 mg/kg
[5] = Route: i.p., 300 mg/kg daily for 14 days
[6] = Route: i.p., 300 mg/kg daily for 14 days, 300 mg/kg

Sequence of Mushroom tyrosinase (C7FF04 1-392): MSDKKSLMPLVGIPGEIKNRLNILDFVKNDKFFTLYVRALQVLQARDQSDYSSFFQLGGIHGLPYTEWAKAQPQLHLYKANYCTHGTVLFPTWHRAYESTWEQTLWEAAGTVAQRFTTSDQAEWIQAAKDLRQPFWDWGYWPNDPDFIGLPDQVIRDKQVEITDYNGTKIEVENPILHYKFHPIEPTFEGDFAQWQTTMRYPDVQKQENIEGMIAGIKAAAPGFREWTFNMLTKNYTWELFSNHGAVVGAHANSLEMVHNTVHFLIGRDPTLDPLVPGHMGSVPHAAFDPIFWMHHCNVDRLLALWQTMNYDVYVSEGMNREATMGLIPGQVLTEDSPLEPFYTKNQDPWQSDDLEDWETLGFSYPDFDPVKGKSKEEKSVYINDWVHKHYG

Compound | electron microscopy of hair follicles: melanocytes and melanosomes (melanocytes) | lethal dose [1] [mg/kg] | PTCA Content (follicular melanocytes; [3]) [ng/mg] | Depigmentation (follicular melanocytes; [4]) | PTCA Content (follicular melanocytes; [5]) [ng/mg] | Depigmentation (follicular melanocytes; [6]) | Depigmentation (follicular melanocytes; [3]) [%] | Depigmentation (follicular melanocytes; [5]) [%] | other results
NCCSc1ccc(O)cc1 [4-S-CAP, 4-S-cysteaminylphenol, reference compound] | contained immature melanosomes at stages II and III | 400 | 458.3 ± 107.6 | 47% and 46.9% | 146.1 ± 72.4 | 87% and 86.6% |  |  | tyrosinase substrate (Mushroom tyrosinase): a substrate for both plasma MAO and tyrosinase; substrate for plasma MAO (plasma MAO): a substrate for both plasma MAO and tyrosinase; No. of Colonies % control (B16F10 melanoma): 30% and 32.4%; No. of Colonies per pair of lungs (B16F10 melanoma): 28.0 ± 14.5; light microscopy of hair follicles: functioning melanocytes and melanin pigments (melanocytes; i.p. daily, day 10 (late anagen phase)): the hair follicles contained functioning melanocytes and melanin pigments transferred into keratonocytes, although they were much sparser than in the controls; %Gi (B16 melanoma; Experiment I): 54.0%; Tumour Volume (B16 melanoma; Experiment I): 239 ± 39 mm^3; %Gi (B16 melanoma; Experiment II): 25.1%; Tumour Volume (B16 melanoma; Experiment II): 405 ± 61 mm^3
N[C@@H](CSc1ccc(O)cc1)C(=O)O [4-S-CP, 4-S-cysteinylphenol] |  | 600 |  |  |  |  |  |  | 
NCCCSc1ccc(O)cc1 [4-S-HomoCAP, 4-S-homo-CAP] |  |  | 397.7 ± 279.3 |  | 956.7 ± 77.9 |  | 63.5 | 12.1 | 
CN(C)CCSc1ccc(O)cc1 [N,N-DiMe-4-S-CAP, N,N'-dimethyl-4-S-CAP] |  |  | 1023.4 ± 110.1 |  | 1009.0 ± 193.5 |  | 6.1 | 7.3 | visible pigmentation of new hair (follicular melanocytes; i.p. or s.c. route, result in words): no visible changes in pigmentation in new follicles
CC(N)CSc1ccc(O)cc1 (stereo not drawn) [α-Me-4-S-CAP, α-methyl-4-S-CAP] | contained immature melanosomes at stages II and III |  | 557.9 ± 47.2 | 58% and 57.9% | 121.3 ± 81.9 | 89% and 88.9% |  |  | per single dose toxicity levels [2]: ~500 mg/kg of body weight; side-effects (follicular melanocytes; 300 mg/kg daily for 14 days, i.p. or s.c., irritation seen after s.c. administration): some irritation of the skin in the plucked area

Reference: patent EP0526502B1, “PHENOLIC AMINE DEPIGMENTING AND ANTIMELANOMA AGENTS” (The Governors of the University of Alberta, priority 1990, dated 1991)
